Melting point data for 92 compounds are collected here from a melting point compilation (Tetko et al.; mined from patent text by program, amines drawn as free bases though some values may be those of a salt).

As to `CC(=O)NC(C)Cc1cc(C)c(C)cc1CC(=O)O` (configuration not stated), the melting point was in the range of 67 to 69 °C.

`CCOC(=O)C=C(C)c1ccc(-c2ccccc2)cc1` came in with a melting point of 76 to 78 °C.

For the compound `CCN(C(=O)c1ccc2nonc2c1)C1CCCCC1`, the melting point lay within 51 to 52 °C.

Compound `N#Cc1ccc(N2CCC(=O)C2)c2ccccc12` displayed a melting point of 153 to 154 °C.

`CCOC(=O)c1cnn2c1c(OCC)nc1ccccc12` showed a melting point of 88 to 90 °C.

The compound `CC(=O)C(C)=Cc1cc(O)c(O)c([N+](=O)[O-])c1` registered a melting point of 139 to 141 °C.

The compound `COc1cc(Cn2cccc3ncnc2-3)ccc1C(=O)N(C(C)C)C1CCCCC1` had a melting point of 98 to 100 °C.

Compound `CN(C)Cc1c(O)ccc2cc(Br)ccc12` came in with a melting point of 95 to 96 °C.

In turn, `CCOC(=O)c1cc(CCC2CNc3nc(NC(=O)C(C)(C)C)nc(O)c3C2)[nH]n1` (configuration not stated) registered a melting point of 235 to 237 °C.

In turn, `Cc1ccc(C)n1C1=CC2=C(CC1)CCc1[nH]c(=O)c(=O)n(O)c12` showed a melting point of over 250 °C.

The compound `O=C1NC(=S)SC1=Cc1cc(Cl)c2c(c1)N(CCc1ccc(C(F)(F)F)cc1)C(=O)CO2` returned a melting point of 275 to 277 °C.

`CN1Cc2c(-c3noc(CN)n3)ncn2-c2ccccc2C1=O` yielded a melting point of 192 to 195 °C.

Regarding `O=C(c1ccccc1)c1cnn2c(-c3cccc(N4CCCCC4=O)c3)ccnc12`, the melting point was in the range of 160 to 162 °C.

In turn, `CCCCc1nn(-c2cc(NC(=O)CC)ccc2Cl)c(=O)n1Cc1ccc(-c2ccccc2S(=O)(=O)NC(=O)OC(C)(C)C)cc1` returned a melting point of 133 to 135 °C.

Take `Nc1ccnc2cc(Br)cnc12`: the melting point lay in the range of 168 to 169 °C.

`Cc1[nH]cnc1CN1CCc2c(c3cccc(OCc4ccccc4)c3n2COCc2ccccc2)C1=O` registered a melting point of 170 to 172 °C.

Turning to `CCCN(CCC)S(=O)(=O)c1cccc(C(=O)Nc2ccc(Br)cc2C)c1`, the melting point lay within 135 to 136 °C.

Compound `C=CCNc1nc(-c2ccc(=O)n(C(C)C)n2)c(-c2ccccc2)nc1N` yielded a melting point of 208 to 210 °C.

`CCC(=O)Oc1ccc(CC(=O)O)cc1C(C)(C)C` yielded a melting point of 55.5 to 56.5 °C.

On to `CN(C)c1cccc(-c2ccc3c(C(N)=O)nn(-c4ccc(S(N)(=O)=O)cc4)c3c2)c1`, for which the melting point was in the range of 237 to 238 °C.

Take `COc1ccc2c(c1)CCc1nn(-c3ccccn3)c(O)c1-2`: the melting point lay in the range of 139 to 140 °C.

`CC(=O)c1nn(C)c2ccccc12` gave a melting point of 86 to 88 °C.

Compound `COC(=O)OCC(CO)CCn1cnc2cnc(N)nc21` (configuration not stated) returned a melting point of 129 to 132 °C.

`CN1C(C)(C)CC(NC(=O)c2ccc(-c3nc4ccc(Cl)cc4[nH]3)cc2)CC1(C)C` showed a melting point of over 250 °C.

In turn, `CN(C)c1cccc(Oc2ncccc2C(=O)NCc2ccccc2Cl)c1` showed a melting point of 85 to 87 °C.

For the compound `CC(C)n1c(CC[C@@H]2C[C@H](CC(=O)OC(C)(C)C)OC(C)(C)O2)c(-c2ccc(F)cc2)c(-c2ccccc2)c1C(N)=O`, the melting point lay in the range of 201 to 202 °C.

`CNC(=O)c1ccc(C=CC(=O)O)cc1` showed a melting point of 273 °C.

Regarding `O=C(N=c1ccn(-c2ccccc2)nc1)c1ccccc1`, the melting point fell in the range of 175 to 176 °C.

As for `O=C(CC(CC1CCCCC1)(C(=O)O)C(=O)O)c1ccco1`, the melting point fell in the range of 127 to 130 °C.

For the compound `CCOC(=O)CC(O)CC(O)C=Cc1c(C(C)C)oc(-c2ccccc2)c1-c1ccc(F)cc1` (configuration not stated), the melting point fell in the range of 98 to 100 °C.

Compound `CCCCCCCCCCCCC(=O)/C=C/C(=O)O` yielded a melting point of 97.5 to 98.5 °C.

`Cc1cc(NCCO)c2[nH]nc(Br)c2n1` registered a melting point of 210 to 214 °C.

`Cc1cc2cc(CN3CCCC3)cnc2cc1NC(=O)c1ccc(-c2ccc(Cl)cc2)nc1` returned a melting point of 232 to 237 °C.

For `COc1ccc2cc(CN(C)C(=O)c3oc4ccccc4c3C)ccc2c1Br`, the melting point lay in the range of 138 to 140 °C.

In the case of `C=CCN1N=C(c2ccc(OC)c(OC)c2)[C@@H]2CCCC[C@@H]2C1=O` (relative stereo), the melting point lay in the range of 99 to 101 °C.

`CCc1cc2c(O)cc(=O)oc2cc1OC`: the melting point fell in the range of 174 to 175 °C.

With `COc1cc(C)ccc1-c1nc(C)c(-c2cccnc2)[nH]1`, the melting point lay within 125 to 128 °C.

The compound `CC(C)c1nc(N)oc1-c1ccc(F)c2ccccc12` returned a melting point of 141 °C.

Take `O=C(O)c1ccc(-c2nc3ccccc3s2)nc1`: the melting point was over 300 °C.

Consider `CCC1(CC(=O)OC2OC(=O)c3ccccc32)OCCc2c1[nH]c1cc(OC(F)(F)F)ccc21` (configuration not stated), for which the melting point stood at 150 °C.

Consider `CC(C)(C)OC(=O)NCC1(CC#N)CCCCC1`, for which the melting point is 54 to 58 °C.

On to `O=Cc1c[nH]c2c1ccc1c2[nH]c2cccc(Br)c21`, for which the melting point was over 250 °C.

On to `Cc1c(C)c2c(c(C)c1O)CCC(C)(CCOc1ccc(CC3SC(=N)NC3=O)cc1)O2` (configuration not stated), for which the melting point is 175 to 180 °C.

Compound `Cc1cc(-c2cc(C(F)(F)F)nc(-n3cnc(-c4ccc(S(N)(=O)=O)s4)c3)n2)ccc1C(F)(F)F` registered a melting point of 260 °C.

Turning to `CCOC(=O)Cn1cc(Cl)cnc1=O`, the melting point was 175 to 177 °C.

For the compound `CCCCCCCCCCCCCCCCCC(=O)OCCCCCCCCCCCCCC`, the melting point amounted to 40 °C.

In turn, `CCCc1nc(C)n2[nH]c(=O)nc2c1Br` registered a melting point of 221 °C.

With `CC(=O)Oc1n[nH]c(=O)c2nc3cc(Cl)ccc3c(O)c12`, the melting point is over 300 °C.

For `C=Cc1cc(NC(=O)N2CCN(c3cc(OC)cc(OC)c3)CC2)c(OC)nc1C`, the melting point was in the range of 140 to 141 °C.

Compound `COc1cc(C=NO)c2oc(-c3ccc(OC)c(F)c3)cc2c1` registered a melting point of 208 to 210 °C.

Take `CCCCc1nc(C(=O)C(C)(C)C)c(C#N)[nH]1`: the melting point was in the range of 135 to 137 °C.

`OC(CN1CC1)c1ccccc1` (configuration not stated) gave a melting point of 74 to 76 °C.

`O=C1CCc2cc(OCC(F)(F)C(F)(F)F)ccc21` registered a melting point of 52 to 54 °C.

`CC(C)(C)C(=O)OC1CCC2(C)C(=CC(O)C3C2CCC2(C)C(=O)CC(OC(=O)C(C)(C)C)C32)C1` (configuration not stated) gave a melting point of 195 to 197 °C.

`O=S(=O)(Cl)c1ccc2c(c1)oc1ccccc12` came in with a melting point of 142 to 144 °C.

In the case of `CCCCCCCCc1cccc(N2CC(=O)NC(=O)N2)c1`, the melting point lay in the range of 169 to 171 °C.

`CN(C)C=Cc1ncc([N+](=O)[O-])n1CCc1ccncc1` came in with a melting point of 190 to 191 °C.

Compound `CC(=O)Oc1cc(C(C)(C)C)ccc1C1(OC(C)=O)C(=O)c2ccccc2C1=O` came in with a melting point of 119 to 120 °C.

Take `Cc1nc(-c2cn(CC3CC3)nn2)sc1C(=O)NCc1cccnc1`: the melting point was 140 to 141 °C.

`NC(=NO)c1ncn2c1[C@@H]1CCCN1C(=O)c1c(Br)cccc1-2` showed a melting point of 235 to 237 °C.

For the compound `CC(C)(C)OC(=O)N1CCN(c2ccc3[nH]c(S)nc3c2)CC1`, the melting point lay within 219 to 220 °C.

The compound `NC(=O)c1nccc(Cl)c1Cl` showed a melting point of 174 to 175 °C.

For the compound `COc1nc(C(F)(F)F)cc(=O)n1-c1cc(O)c(Cl)cc1F`, the melting point lay within 147 to 149 °C.

Compound `Cc1ccc(C(=O)C=CN(C)C)o1` returned a melting point of 123 to 125 °C.

`COc1cc(C=NC2CCCCC2)c([N+](=O)[O-])cc1OC` came in with a melting point of 160 to 161 °C.

For `COC[C@H]1CN(c2ccc([C@H]3CC[C@H](C#N)CC3)cc2)C(=O)O1`, the melting point came out at 174 °C.

In turn, `O=C(O)CC1C=CC=CC1=NOC(=O)C(Cl)Cl` (configuration not stated) registered a melting point of 115 °C.

For `CCc1ccc2ncc(C(=O)N(O)c3ccccc3)c(O)c2c1`, the melting point is 218 °C.

The compound `CCn1ncc2c(NCC3CCCCC3)c3ccc([N+](=O)[O-])cc3nc21` came in with a melting point of 205 to 207 °C.

With `Cc1nn(-c2c(Cl)cc(C(F)(F)F)cc2Cl)c(N)c1I`, the melting point is 116 to 118 °C.

The compound `CCCCCCCCCCCCCCCCCC(CCC(=O)O)[N+](=O)[O-]` (configuration not stated) showed a melting point of 55 to 56 °C.

For the compound `O=C(O)c1cccc2c1C(=O)c1ccccc1S2(=O)=O`, the melting point was in the range of 269 to 271 °C.

For the compound `O=C(O)CCCCCCCSc1ccc(Cl)cc1`, the melting point fell in the range of 92 to 93 °C.

The compound `Cc1nc(-n2ccc(OCc3ccccc3)cc2=O)[nH]c1C(=O)NCc1ccccc1` registered a melting point of 183 to 184 °C.

`CC(=O)OC1CCN(Cc2nc(-c3cc(C(C)(C)C)c(O)c(C(C)(C)C)c3)cs2)CC1` came in with a melting point of 160 to 161 °C.

`CC(=O)c1cn(-c2c(Cl)cc(OC(F)(F)F)cc2Cl)nc1C#N` had a melting point of 106 to 107 °C.

Take `CCCCOCCOc1ccc(-c2ccc(N3CCC(C(=O)OC)C3)c(C=C(C)C(=O)O)c2)cc1` (configuration not stated): the melting point lay within 140 to 141 °C.

Take `CCOC(=O)C1CCC2(CCN(S(=O)(=O)c3ccc(C)cc3)c3ccccc3C2)C1O` (configuration not stated): the melting point lay within 139 to 140 °C.

As for `Nc1ccnc(CSCCN2C(=O)c3ccccc3C2=O)n1`, the melting point was 131 to 133 °C.

For `CCNCC1CN(c2c(F)cc3c(=O)c(C(=O)O)cn(C4CC4)c3c2F)C1`, the melting point is 237 to 242 °C.

On to `C=CC(=N)NS(N)(=O)=O`, for which the melting point lay within 72 to 75 °C.

On to `CCOC(=O)c1cc2cc(C(F)(F)F)ccc2[nH]1`, for which the melting point was 134 to 137 °C.

Take `COc1nc2cc([N+](=O)[O-])c(C)c(C(=O)Nc3ccc(C)cc3)c2nc1OC`: the melting point fell in the range of 214 to 215 °C.

The compound `CCCN(CCC)C1=NC2C(Br)=NN(C)C2C(O)=N1` (configuration not stated) registered a melting point of 186 to 187 °C.

`CCN(CC)C(=S)NC1C=C2c3cccc4c3c(cn4CC)CC2N(C)C1` (configuration not stated) registered a melting point of 108 °C.

The compound `CCCCC1OC(=O)c2cc(NC(=O)OCC)ccc21` (configuration not stated) gave a melting point of 125 to 126 °C.

Regarding `CC1(C)CC(=NN)c2ccccc21`, the melting point lay in the range of 194 to 197 °C.

On to `CC(=O)c1cc(Cl)c2c(c1Cl)C(C)(C)CCS2(=O)=O`, for which the melting point was in the range of 154 to 155 °C.

`O=C(NCc1cccc(Br)c1)c1ccc2cnccc2n1` yielded a melting point of 112 to 113 °C.

For the compound `C[C@@H]1C[C@@H]2c3cccc4c3N(CCNC4)[C@@H]2C1`, the melting point was in the range of 155 to 158 °C.

Regarding `COc1cccc2c3c([nH]c12)C(=O)N=NC3=O`, the melting point is over 260 °C.

Take `CCCCc1ccc(-c2[nH]nc3c2C(=O)c2c(NC(C)=O)cccc2-3)cc1`: the melting point is 259 °C.
